Laboratory results published in US11806393B2, “Flavivirus peptide sequences, epitopes, and methods and uses thereof” (priority 2017, dated 2023).

Key:
Format in all cases: cell-based, mouse
CD8+ T cells [1] = assay: IFNγ-ELISPOT of predicted H-2b-binding ZIKV peptides; settings: CD8+ T cells of mice infected with MR766 or FSS13025, day 7; positive: SFC per 10^6 CD8+ T cells ≥20 and stimulation index ≥2
Method: CD8^+ T cells were isolated by magnetic bead positive selection (Miltenyi Biotec, Germany). A total of 2×10^5 CD8^+ T cells were stimulated with 1×10^5 LPS-blast cells as antigen presenting cells (APCs) and 10 μg of individual ZIKV-derived peptide in 96-well flat-bottom plates (IMMOBILON™-P; Millipore, MA) coated with anti-mouse IFNγ monoclonal antibody (mAb) (clone AN18; Mabtech, Sweden) in triplicate. IFNγ-ELISPOT was performed as previously detailed (Elong Ngono et al., 2016). Positive peptides were those with a number of spot-forming cells (SFC) per 10^6 CD8^+ T cells ≥20 and a stimulation index ≥2 based on the negative control (DMSO). […]
The following results are with reference to FIG. 3A and FIG. 3B, where five-week-old LysMCre^+IFNAR^fl/fl were infected retro-orbitally with 10^4 FFU of ZIKV MR766 or FSS13025. […] A total of 244 peptides from ZIKV strains predicted to bind H-2Kb and H-2db with high affinity were screened. Two independent experiments for each ZIKV strain (n=5 mice for each experiment) were performed in triplicate per peptide. The data are expressed as the mean of spot forming cells (SFC) per 10^6 CD8^+ T cells, and error bars are represented as SEM. One-way ANOVA was used to compare the mean of each peptide with the control (DMSO) ([…]). […] The dotted line corresponds to the average amount of IFNγ produced by MOCK mice when stimulated with positive ZIKV-derived peptides (0.19% of IFNγ+CD8^+ T cells).

CD8+ T cells [2] = assay: IFNγ ELISPOT, ZIKV-infected Ifnar-/- HLA-B*0702 transgenic mice; settings: HLA-B*0702 mice; for SFC/10^6 CD8+ T cells, MR766: 7 days after 1×10^2 FFU ZIKV MR766; for SFC/10^6 CD8+ T cells, FSS13025: 7 days after 1×10^2 FFU ZIKV FSS13025; for immunodominance in IFNγ ELISPOT: immunodominant: >500 SFCs/10^6 CD8+ T cells, shared by both ZIKV strains
Method: (§1) Two ZIKV strains, MR766 (Uganda, 1947) and FSS13025 (Cambodia, 2010), were obtained from the World Reference Center for Emerging Viruses and Arboviruses (WRCEVA). The mouse-adapted DENV2 strain S221 is a triple-plaque purified clone derived from DENV2 D2S1038. Both ZIKV and DENV2 were amplified in C6/36 mosquito cells, and viral titers were measured using baby hamster kidney (BHK)-21 cell-based focus forming assay (FFA). For epitope screening, 5-week old mice (female or male) were infected retro-orbitally (R.O.) with either 1×102 FFU of ZIKV FSS13025 or ZIKV MR766, or 2×10^4 FFU of DENV2 S221 in 200 μl 10% FBS/PBS. Seven days after infection, CD8^+ T cells were isolated from splenocytes and used for ELISPOT assay, while the splenocytes were directly used for ICS assay. Additionally, 5-week old mice were inoculated I.P. with 2×10^3 FFU of DENV2 S221 for 4 weeks.
CD8^+ T cells were isolated from splenocytes using magnetic bead positive selection (Miltenyi Biotec, Germany) 7 days after virus infection. 2×10^5 CD8^+ T cells were stimulated with 1×10^5 LPS-blasts loaded with 10 μg of individual peptide in 96-well flat-bottom plates (IMMOBILON™-P; Millipore, Bedford, Mass.) that were coated with anti-IFNγ mAb (clone AN18; Mabtech, Stockholm, Sweden) in triplicate. Concanavalin A (ConA) was used as positive control. After 20 hours of incubation, biotinylated anti-mouse IFNγ mAb (R4-6A2; Mabtech), followed by ABC peroxidase (Vector Laboratories, Burlingame, Calif., USA) and then 3-amino-9-ethylcarbazole (Sigma-Aldrich, St. Louis, Mo., USA) were added into the wells. […] A peptide inducing a magnitude of >500 SFCs/10^6 CD8^+ T cells was considered as an immunodominant peptide.
Two independent experiments performed in triplicate were averaged and the error bars represent the SEM. The data are expressed as the mean number of spot forming cells (SFC) per 10^6 CD8^+ T cells. The criteria for positivity were net SFC per 10^6 cells of >20, and a stimulation index of >2.0 when compared with the negative control. Dotted lines represent the cutoff value. * Indicates a positive response. […] ConA denotes Concanavalin A.

CD3+CD8+ T cells = assay: IFNγ ICS, ZIKV-infected Ifnar-/- HLA-B*0702 transgenic mice; settings: for % IFNγ+ CD8+ T cells, MR766 / % IFNγ+ CD8+ T cells, FSS13025: HLA-B*0702 mice; for % IFNγ+ CD8+ T cells, MR766: 7 days after ZIKV MR766, ICS; for % IFNγ+ CD8+ T cells, FSS13025: 7 days after ZIKV FSS13025, ICS
Method: as §1
Spleens were harvested from virus-infected, mock-immunized, or peptide-immunized mice. 1×10^6 splenocytes were plated in each well of 96-well U-bottom plates and stimulated with individual peptide (10 μg crude peptide or 1 μg pure peptide per well) for 6 hours. Five hours before the end of incubation, Brefeldin A (GolgiPlug; BD Biosciences) and PE-conjugated anti CD107a mAb (clone 1D4B, eBioscience) were added to the cells. Splenocytes stimulated with PMA-ionomycin were used as the positive control, while cells without any stimulation were the negative control. […] Samples were run using an LSR™ II (BD Biosciences) and analyzed using FLOWJO™ software X 10.0.7 (Tree Star, Ashland, Oreg.).
Data represent the average of two independent experiments and are expressed as mean±SEM. *, P<0.05; **, P<0.01; Two-tailed Mann-Whitney test. P/I denotes PMA/ionomycin.

25 (SNRDFVEGM) [compound 25]
Strains (ZIKV strain for which the peptide induced a positive T cell response, IFNγ-ELISPOT) (CD8+ T cells [1]): MR766/FSS

26 (SQLTPLTLI) [compound 26]
Strains (ZIKV strain for which the peptide induced a positive T cell response, IFNγ-ELISPOT) (CD8+ T cells [1]): MR766/FSS

27 (SVKKNLPFVM) [compound 27]
Strains (ZIKV strain for which the peptide induced a positive T cell response, IFNγ-ELISPOT) (CD8+ T cells [1]): MR766/FSS

AAGKRGAAL [MR-NS3596-NS4A1]
SFC/10^6 CD8+ T cells, MR766 (CD8+ T cells [2]): 148 SFC/10^6 CD8+ T cells

FPDSNSPINI (FPDSNSPIM) [FSS/MR-NS3309-317]
% IFNγ+ CD8+ T cells, MR766 (CD3+CD8+ T cells): (0.49%)
SFC/10^6 CD8+ T cells, FSS13025 (CD8+ T cells [2]): 335 SFC/10^6 CD8+ T cells
SFC/10^6 CD8+ T cells, MR766 (CD8+ T cells [2]): 565 SFC/10^6 CD8+ T cells

GPCKVPAQMAV [FSS-E337-347]
SFC/10^6 CD8+ T cells, MR766 (CD8+ T cells [2]): 271 SFC/10^6 CD8+ T cells

GPQRLPVPV [FSS/MR-NS199-107]
SFC/10^6 CD8+ T cells, MR766 (CD8+ T cells [2]): 103 SFC/10^6 CD8+ T cells

IPYLGKREDL [FSS/MR-NS5587-596]
% IFNγ+ CD8+ T cells, MR766 (CD3+CD8+ T cells): (0.26%)
SFC/10^6 CD8+ T cells, FSS13025 (CD8+ T cells [2]): 178 SFC/10^6 CD8+ T cells
SFC/10^6 CD8+ T cells, MR766 (CD8+ T cells [2]): 438 SFC/10^6 CD8+ T cells

LPILAALTPL [MR-NS2A141-150]
% IFNγ+ CD8+ T cells, MR766 (CD3+CD8+ T cells): (0.28%)
SFC/10^6 CD8+ T cells, MR766 (CD8+ T cells [2]): 540 SFC/10^6 CD8+ T cells

LPSHSTRKL [FSS/MR-M4-12]
% IFNγ+ CD8+ T cells, MR766 (CD3+CD8+ T cells): (0.28%)
SFC/10^6 CD8+ T cells, FSS13025 (CD8+ T cells [2]): 235 SFC/10^6 CD8+ T cells
SFC/10^6 CD8+ T cells, MR766 (CD8+ T cells [2]): 398 SFC/10^6 CD8+ T cells

RPAEGGKTVM [MR-NS5332-341]
% IFNγ+ CD8+ T cells, MR766 (CD3+CD8+ T cells): (0.35%)
SFC/10^6 CD8+ T cells, MR766 (CD8+ T cells [2]): 277 SFC/10^6 CD8+ T cells

RPASAWAIYA [FSS/MR-NS4B35-44]
% IFNγ+ CD8+ T cells, MR766 (CD3+CD8+ T cells): (0.49%)
SFC/10^6 CD8+ T cells, MR766 (CD8+ T cells [2]): 180 SFC/10^6 CD8+ T cells

RPEADKVAAI [FSS/MR-NS3492-501]
SFC/10^6 CD8+ T cells, MR766 (CD8+ T cells [2]): 157 SFC/10^6 CD8+ T cells

RPRTTVVAENI [FSS/MR-NS5605-614]
% IFNγ+ CD8+ T cells, FSS13025 (CD3+CD8+ T cells): (0.22%)
% IFNγ+ CD8+ T cells, MR766 (CD3+CD8+ T cells): (0.55%)
SFC/10^6 CD8+ T cells, FSS13025 (CD8+ T cells [2]): 383 SFC/10^6 CD8+ T cells
SFC/10^6 CD8+ T cells, MR766 (CD8+ T cells [2]): 641 SFC/10^6 CD8+ T cells

RPYKAAAAQL [FSS/MR-NS4A36-45]
SFC/10^6 CD8+ T cells, MR766 (CD8+ T cells [2]): 120 SFC/10^6 CD8+ T cells

RVIDSRRCL [FSS/MR-NS3405-413]
% IFNγ+ CD8+ T cells, FSS13025 (CD3+CD8+ T cells): (0.23%)
% IFNγ+ CD8+ T cells, MR766 (CD3+CD8+ T cells): (0.4%)
SFC/10^6 CD8+ T cells, FSS13025 (CD8+ T cells [2]): 236 SFC/10^6 CD8+ T cells
SFC/10^6 CD8+ T cells, MR766 (CD8+ T cells [2]): 718 SFC/10^6 CD8+ T cells

SPFGGLKRLPA [FSS-C25-35]
% IFNγ+ CD8+ T cells, FSS13025 (CD3+CD8+ T cells): (0.79%)
simultaneous IFNγ and TNFα production by peptide-stimulated CD8+ T cells (CD3+CD8+ T cells; ZIKV FSS13025-infected mice): stimulated production of both IFNγ and TNFα
SFC/10^6 CD8+ T cells, FSS13025 (CD8+ T cells [2]): 802 SFC/10^6 CD8+ T cells

SPQDNQMAI [FSS/MR-NS4A125-133]
SFC/10^6 CD8+ T cells, MR766 (CD8+ T cells [2]): 159 SFC/10^6 CD8+ T cells

SPRAEATL [FSS/MR-E173-180]
SFC/10^6 CD8+ T cells, FSS13025 (CD8+ T cells [2]): 167 SFC/10^6 CD8+ T cells
SFC/10^6 CD8+ T cells, MR766 (CD8+ T cells [2]): 108 SFC/10^6 CD8+ T cells

TPHWNNKEAL [FSS/MR-E233-242]
% IFNγ+ CD8+ T cells, MR766 (CD3+CD8+ T cells): (0.3%)
SFC/10^6 CD8+ T cells, FSS13025 (CD8+ T cells [2]): 158 SFC/10^6 CD8+ T cells
SFC/10^6 CD8+ T cells, MR766 (CD8+ T cells [2]): 218 SFC/10^6 CD8+ T cells

TPLARGTL [FSS/MR-NS2A148-155]
% IFNγ+ CD8+ T cells, FSS13025 (CD3+CD8+ T cells): (0.28%)
% IFNγ+ CD8+ T cells, MR766 (CD3+CD8+ T cells): (0.87%)
simultaneous IFNγ and TNFα production by peptide-stimulated CD8+ T cells (CD3+CD8+ T cells; ZIKV MR766-infected mice): stimulated simultaneous production of IFNγ and TNFα
SFC/10^6 CD8+ T cells, FSS13025 (CD8+ T cells [2]): 706 SFC/10^6 CD8+ T cells
SFC/10^6 CD8+ T cells, MR766 (CD8+ T cells [2]): 1055 SFC/10^6 CD8+ T cells
immunodominance in IFNγ ELISPOT (CD8+ T cells [2]): immunodominant

TPLTLIVAIIL [FSS/MR-NS4B105-115]
% IFNγ+ CD8+ T cells, MR766 (CD3+CD8+ T cells): (0.4%)
SFC/10^6 CD8+ T cells, MR766 (CD8+ T cells [2]): 163 SFC/10^6 CD8+ T cells

TPNSPRAEA [FSS/MR-E170-178]
SFC/10^6 CD8+ T cells, MR766 (CD8+ T cells [2]): 155 SFC/10^6 CD8+ T cells

VPRTDNIAL [MR-NS2A133-141]
% IFNγ+ CD8+ T cells, FSS13025 (CD3+CD8+ T cells): (0.54%)
% IFNγ+ CD8+ T cells, MR766 (CD3+CD8+ T cells): (1.39%)
SFC/10^6 CD8+ T cells, FSS13025 (CD8+ T cells [2]): 648 SFC/10^6 CD8+ T cells
SFC/10^6 CD8+ T cells, MR766 (CD8+ T cells [2]): 776 SFC/10^6 CD8+ T cells
immunodominance in IFNγ ELISPOT (CD8+ T cells [2]): immunodominant
